Reference: patent US20220402873A1, “NOVEL P62 LIGAND COMPOUND, AND COMPOSITION CONTAINING SAME FOR PREVENTING, AMELIORATING, OR TREATING PROTEINOPATHIES” (AUTOTAC INC., priority 2019, published 2022)

Assays:
Format in all cases: cell-based
[1] = molecular target: T1, p62 protein (Homo sapiens, UniProt Q13501); test: Oligomerization activity of p62 protein by immunoblotting; design: endogenous in cells; details: HEK293 cell line lysate treated with test compounds for 2 hours at room temperature
From the text: In order to evaluate the oligomerization activity efficacy of p62 protein of the compounds (Examples 1-20), HEK293 cell line, which is human embryonic kidney-derived cell, was collected. As representative compounds of the present compounds, the compounds of Examples 1-20 (Example 1 (ATB10048), Example 2 (ATB10047), Example 3 (ATB10049), Example 4 (ATB10051), Example 5 (ATB10050), Example 6 (ATB10056), Example 7 (ATB10052), Example 8 (ATB10057), Example 9 (ATB10060), Example 10 (ATB10072), Example 11 (ATB10075), Example 12 (ATB10078), Example 13 (ATB10079), Example 14 (ATB10080), Example 15 (ATB10081), Example 16 (ATB10087), Example 17 (ATB10096), Example 18 (ATB10097), Example 19 (ATB10099) and Example 20 (ATB10100)) were selected, and in order to measure the activation and oligomerization of the p62 protein in cells according to the treatment with these selected representative compounds, each cell was dispensed into a 100 phi dish. The cells were collected after additional culture for 24 hours so that the cells were completely attached to the surface of the plate, and 100 ul of lysis buffer (20 mM Tris (pH 7.4), 150 mM NaCl, 1% Triton X-100, 2 mM NaF, 2 mM EDTA, 2 mM beta-glycerophosphate, 5 mM sodium orthovanadate, 1 mM PMSF, leupeptin, aproteinin) was injected to each sample, and the cells were lysed. Based on the measured total protein concentration, each sample was treated with the test compounds for 2 hours at room temperature, and then a sample buffer was added and reacted at 95° C. for 10 minutes. 25 ul was taken from the samples after the reaction was completed and dispensed into each well of an acrylamide gel, and immunoblotting was performed.

[2] = molecular target: T1, p62 protein; test: Activity of p62 protein and delivery of ubiquitinated substrate proteins to autophagy by immunofluorescence staining (p62, FK2) and confocal microscopy; design: endogenous in cells; host or cells: HeLa; details: Hela cell line, 1 uM, 6 hours
Method: Immunofluorescence staining was performed using p62 and FK2 as markers to determine the level of the activity of p62 protein of the compounds (Examples 1-20). In order to determine the level of p62 activity and autophagy activity by the novel p62 ligand and its isomers in the cultured cells, the Hela cell line derived from cervical cancer patients was treated with a novel p62 ligand compound (Example 1 (ATB10048), Example 2 (ATB10047), Example 3 (ATB10049), Example 5 (ATB10050), Example 4 (ATB10051), Example 7 (ATB10052), Example 6 (ATB10056), Example 8 (ATB10057), Example 9 (ATB10060), Example 10 (ATB10072), Example 11 (ATB10075), Example 12 (ATB10078), […], Example 14 (ATB10080), Example 15 (ATB10081), Example 16 (ATB10087)), Example 17 (ATB0096), Example 18 (ATB10097), Example 19 (ATB10099) and Example 20 (ATB10100)) and cultured, and then the level of puncta expression and location of FK2, which was a marker of the protein to be delivered to and degraded in the autophagy through the mediation of the intracellular ubiquitinated p62, and the puncta local co-existence with p62 were observed.
For immunofluorescence staining, a cover glass was placed on a 24-well plate, cells were dispensed and cultured for 24 hours, and then 1 uM of the novel p62 ligand according to the present invention was treated. After culturing for an additional 6 hours for the action of the compound, the medium was removed, and the cells were fixed using formaldehyde at room temperature. In order to prevent non-specific staining, the cells were reacted with a blocking solution at room temperature for 1 hour, and then the LC3 antibody diluted at a certain ratio was treated with a blocking solution and then reacted at room temperature for 1 hour. After the antibody-treated cells were washed 3 times with PBS, the goat-derived secondary antibody was diluted at a certain ratio using the blocking solution, and then reacted at room temperature for 30 minutes. After further washing with PBS three times, and DAPI staining was performed for intracellular nuclear staining. Then, the level of expression of p62 or FK2, the level of intracellular puncta formation, and the level of coexistence in the cells were observed by a confocal microscope.

[3] = molecular target: T1, p62 protein; test: Activity of p62 protein and delivery to autophagosome by immunofluorescence staining (p62, LC3-GFP) and confocal microscopy; design: endogenous in cells; host or cells: HeLa; details: Hela-LC3-GFP cell line, 5 uM, 24 hours
Method: Immunofluorescence staining was performed using p62 and FK2 marker to determine the level of activity of p62 protein of the compounds (Examples 1-20). In order to determine the level of p62 activity and autophagy activity by the novel p62 ligand and its isomers in cultured cells, Hela-LC3-GFP cell line derived from cervical cancer patients was treated with the novel p62 ligand compounds (Example 2 (ATB10047), Example 3 (ATB10049), Example 4 (ATB10051), Example 6 (ATB10056), Example 9 (ATB10060), Example 12 (ATB10078), Example 16 (ATB10087) and Example (ATB10097)) and cultured. Then, the level of puncta expression and location of LC3-GFP, which is an essential autophagosome marker for macroautophagy, and the puncta local co-existence of p62 were observed.
For immunofluorescence staining, a cover glass was placed on a 24-well plate, cells were dispensed and cultured for 24 hours, and then treated with 5 uM of the novel p62 ligand according to the present invention. The cells were further cultured for an additional 24 hours for the action of the compound, the medium was removed, and the cells were fixed using formaldehyde at room temperature. In order to prevent non-specific staining, the cells were reacted with a blocking solution at room temperature for 1 hour, and then the LC3 antibody diluted at a certain ratio was treated with the blocking solution and then reacted at room temperature for 1 hour. After the antibody-treated cells were washed 3 times with PBS, the goat-derived secondary antibody was diluted at a certain ratio using the blocking solution, and then reacted at room temperature for 30 minutes. The cells were washed again with PBS three times and subjected to DAPI staining for intracellular nuclear staining, and then the level of expression of p62 or LC3, intracellular puncta formation, and intracellular coexistence level were observed by a confocal microscope.

T1 sequence (Q13501 whole entry): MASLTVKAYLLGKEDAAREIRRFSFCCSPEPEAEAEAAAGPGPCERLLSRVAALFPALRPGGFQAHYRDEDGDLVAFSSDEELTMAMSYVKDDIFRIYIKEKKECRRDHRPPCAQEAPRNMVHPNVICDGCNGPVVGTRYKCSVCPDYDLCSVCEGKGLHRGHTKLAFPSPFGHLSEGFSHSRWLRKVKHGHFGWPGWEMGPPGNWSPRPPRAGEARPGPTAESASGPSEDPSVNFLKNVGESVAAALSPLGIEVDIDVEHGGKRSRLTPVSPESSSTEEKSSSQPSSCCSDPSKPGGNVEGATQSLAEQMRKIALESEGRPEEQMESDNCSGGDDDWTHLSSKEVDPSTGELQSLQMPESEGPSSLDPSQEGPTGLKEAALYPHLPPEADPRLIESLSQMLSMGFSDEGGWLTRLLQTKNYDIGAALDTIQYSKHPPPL

OCCNCc1cccc(OCc2ccccc2)n1 [Example 2, 2-(((6-(benzyloxy)pyridin-2-yl)methyl)amino)ethan-1-ol]
p62 protein oligomerization activity (immunoblot, FIGS. 2a to 2d) [1]: increasing the p62 protein oligomerization activity
delivery of ubiquitinated proteins marked with FK2 to autophagosome mediated by p62 (FIGS. 3a to 3d) [2]: show the efficacy of delivering the proteins to be delivered to and degraded by autophagosome
targeting of activated, oligomerized p62 protein to the autophagosome (FIG. 4) [3]: show the efficacy of targeting them to the autophagosome

OCCNCc1cc(OCc2ccccc2)c(OCc2ccccc2)cn1 [Example 8, 2-(((4,5-bis(benzyloxy)pyridin-2-yl)methyl)amino)ethan-1-ol]
p62 protein oligomerization activity (immunoblot, FIGS. 2a to 2d) [1]: increasing the p62 protein oligomerization activity
delivery of ubiquitinated proteins marked with FK2 to autophagosome mediated by p62 (FIGS. 3a to 3d) [2]: show the efficacy of delivering the proteins to be delivered to and degraded by autophagosome

O=C(CO)NCc1cc(OCc2ccccc2)c(OCc2ccccc2)cn1 [Example 7, N-((4,5-bis(benzyloxy)pyridin-2-yl)methyl)-2-hydroxyacetamide]
p62 protein oligomerization activity (immunoblot, FIGS. 2a to 2d) [1]: increasing the p62 protein oligomerization activity
delivery of ubiquitinated proteins marked with FK2 to autophagosome mediated by p62 (FIGS. 3a to 3d) [2]: show the efficacy of delivering the proteins to be delivered to and degraded by autophagosome

O=C(CO)NCc1ccc(CCc2ccccc2)o1 [Example 19, 2-hydroxy-N-((5-phenethylfuran-2-yl)methyl) acetamide]
p62 protein oligomerization activity (immunoblot, FIGS. 2a to 2d) [1]: increasing the p62 protein oligomerization activity
delivery of ubiquitinated proteins marked with FK2 to autophagosome mediated by p62 (FIGS. 3a to 3d) [2]: show the efficacy of delivering the proteins to be delivered to and degraded by autophagosome

OCCNCc1cc(OCc2ccccc2)ccn1 [Example 5, 2-(((4-(benzyloxy)pyridin-2-yl)methyl)amino)ethan-1-ol]
p62 protein oligomerization activity (immunoblot, FIGS. 2a to 2d) [1]: increasing the p62 protein oligomerization activity
delivery of ubiquitinated proteins marked with FK2 to autophagosome mediated by p62 (FIGS. 3a to 3d) [2]: show the efficacy of delivering the proteins to be delivered to and degraded by autophagosome

OCCNC[C@@H](O)COc1cc(OCc2ccccc2)ccn1 [Example 10, (R)-1-((4-(benzyloxy)pyridin-2-yl)oxy)-3-((2-hydroxyethyl)amino)propan-2-ol]
p62 protein oligomerization activity (immunoblot, FIGS. 2a to 2d) [1]: increasing the p62 protein oligomerization activity
delivery of ubiquitinated proteins marked with FK2 to autophagosome mediated by p62 (FIGS. 3a to 3d) [2]: show the efficacy of delivering the proteins to be delivered to and degraded by autophagosome

OCCNC[C@@H](O)COc1cncc(OCc2ccccc2)c1 [Example 13, (R)-1-((5-(benzyloxy)pyridin-3-yl)oxy)-3-((2-hydroxyethyl)amino)propan-2-ol]
p62 protein oligomerization activity (immunoblot, FIGS. 2a to 2d) [1]: increasing the p62 protein oligomerization activity
delivery of ubiquitinated proteins marked with FK2 to autophagosome mediated by p62 (FIGS. 3a to 3d) [2]: show the efficacy of delivering the proteins to be delivered to and degraded by autophagosome

OCCNC[C@@H](O)CNc1cccc(OCc2ccccc2)n1 [Example 15, (R)-1-((6-(benzyloxy)pyridin-2-yl)amino)-3-((2-hydroxyethyl)amino)propan-2-ol]
p62 protein oligomerization activity (immunoblot, FIGS. 2a to 2d) [1]: increasing the p62 protein oligomerization activity
delivery of ubiquitinated proteins marked with FK2 to autophagosome mediated by p62 (FIGS. 3a to 3d) [2]: show the efficacy of delivering the proteins to be delivered to and degraded by autophagosome

OCCNC[C@@H](O)COc1cccc(NCc2ccccc2)n1 [Example 14, (R)-1-((6-(benzylamino)pyridin-2-yl)oxy)-3-((2-hydroxyethyl)amino)propan-2-ol]
p62 protein oligomerization activity (immunoblot, FIGS. 2a to 2d) [1]: increasing the p62 protein oligomerization activity
delivery of ubiquitinated proteins marked with FK2 to autophagosome mediated by p62 (FIGS. 3a to 3d) [2]: show the efficacy of delivering the proteins to be delivered to and degraded by autophagosome

COc1ccc(OC[C@H](O)CNCCO)nc1OCc1ccccc1 [Example 11, (R)-1-((6-(benzyloxy)-5-methoxypyridin-2-yl)oxy)-3-((2-hydroxyethyl)amino)propan-2-ol]
p62 protein oligomerization activity (immunoblot, FIGS. 2a to 2d) [1]: increasing the p62 protein oligomerization activity
delivery of ubiquitinated proteins marked with FK2 to autophagosome mediated by p62 (FIGS. 3a to 3d) [2]: show the efficacy of delivering the proteins to be delivered to and degraded by autophagosome

O=C(O)CNCc1ccc(OCCc2ccccc2)s1 [Example 20, ((5-phenethoxythiophen-2-yl)methyl)glycine]
p62 protein oligomerization activity (immunoblot, FIGS. 2a to 2d) [1]: increasing the p62 protein oligomerization activity
delivery of ubiquitinated proteins marked with FK2 to autophagosome mediated by p62 (FIGS. 3a to 3d) [2]: show the efficacy of delivering the proteins to be delivered to and degraded by autophagosome

OCCNCc1ccc(OCc2ccccc2)s1 [Example 17, 2-(((5-(benzyloxy)thiophen-2-yl)methyl)amino)ethan-1-ol]
p62 protein oligomerization activity (immunoblot, FIGS. 2a to 2d) [1]: increasing the p62 protein oligomerization activity
delivery of ubiquitinated proteins marked with FK2 to autophagosome mediated by p62 (FIGS. 3a to 3d) [2]: show the efficacy of delivering the proteins to be delivered to and degraded by autophagosome

O=C(CO)NCc1cccc(OCc2ccccc2)n1 [Example 1]
p62 protein oligomerization activity (immunoblot, FIGS. 2a to 2d) [1]: increasing the p62 protein oligomerization activity
delivery of ubiquitinated proteins marked with FK2 to autophagosome mediated by p62 (FIGS. 3a to 3d) [2]: show the efficacy of delivering the proteins to be delivered to and degraded by autophagosome
